Data: ChEMBL document CHEMBL4414615, “Sparticolins A-G, Biologically Active Oxidized Spirodioxynaphthalene Derivatives from the Ascomycete Sparticola junci” (J Nat Prod, 2019)
In brackets after ≈: the same amount, converted by molar mass. Activity calls are given as the source filed them. The rule behind the calls is not given here.

What was measured:
Pseudomonas aeruginosa [1] = assay: Antibacterial activity against Pseudomonas aeruginosa DSM PA14 incubated for 24 hrs by broth microdilution method; format: functional, organism-based
A549 = assay: Cytotoxicity against human A549 cells assessed as reduction in cell growth incubated for 5 days by MTT assay; format: functional, cell-based
A-431 = assay: Cytotoxicity against human A431 cells assessed as reduction in cell growth incubated for 5 days by MTT assay; format: functional, cell-based
MCF7 = assay: Cytotoxicity against human MCF7 cells assessed as reduction in cell growth incubated for 5 days by MTT assay; format: functional, cell-based
PC-3 = assay: Cytotoxicity against human PC3 cells assessed as reduction in cell growth incubated for 5 days by MTT assay; format: functional, cell-based
KB 3-1 = assay: Cytotoxicity against human KB3-1 cells assessed as reduction in cell growth incubated for 5 days by MTT assay; format: functional, cell-based
SK-OV-3 = assay: Cytotoxicity against human SKOV3 cells assessed as reduction in cell growth incubated for 5 days by MTT assay; format: functional, cell-based
L929 = assay: Cytotoxicity against mouse L929 cells assessed as reduction in cell growth incubated for 5 days by MTT assay; format: functional, cell-based
Pseudomonas aeruginosa [2] = assay: Antibacterial activity against Pseudomonas aeruginosa DSM PA14 at 66 ug/ml incubated for 24 hrs by broth microdilution method; format: functional, organism-based
Escherichia coli [3] = assay: Antibacterial activity against Escherichia coli DSM 1116 at 66 ug/ml incubated for 24 hrs by broth microdilution method; format: functional, organism-based
Caenorhabditis elegans = assay: Nematicidal activity against Caenorhabditis elegans incubated for 18 hrs; format: functional; details: for LC50: read-out: LD50 (the source's name)
[4] = tested on: Mycolicibacterium smegmatis; assay: Antibacterial activity against Mycobacterium smegmatis ATCC 700084 at 66 ug/ml incubated for 24 hrs by broth microdilution method; format: functional, organism-based
[5] = tested on: Schizosaccharomyces pombe; assay: Antifungal activity against Schizosaccharomyces pombe DSM 70572 at 66 ug/ml incubated for 48 hrs by broth microdilution method; format: functional, organism-based
Micrococcus luteus [6] = assay: Antibacterial activity against Micrococcus luteus DSM 1790 at 66 ug/ml incubated for 24 hrs by broth microdilution method; format: functional, organism-based
Staphylococcus aureus = assay: Antibacterial activity against Staphylococcus aureus DSM 346 incubated for 24 hrs by broth microdilution method; format: functional; details: DSM 346, 24 h
Rhodotorula glutinis [7] = assay: Antifungal activity against Rhodotorula glutinis DSM 10134 at 66 ug/ml incubated for 48 hrs by broth microdilution method; format: functional, organism-based
Mucor hiemalis [8] = assay: Antifungal activity against Mucor hiemalis DSM 2656 at 66 ug/ml incubated for 48 hrs by broth microdilution method; format: functional, organism-based
[9] = tested on: Chromobacterium violaceum; assay: Antibacterial activity against Chromobacterium violaceum DSM 30191 at 66 ug/ml incubated for 24 hrs by broth microdilution method; format: functional, organism-based
Bacillus subtilis [10] = assay: Antibacterial activity against Bacillus subtilis DSM 10 at 66 ug/ml incubated for 24 hrs by broth microdilution method; format: functional, organism-based
Candida albicans [11] = assay: Antifungal activity against Candida albicans DSM 1665 at 66 ug/ml incubated for 48 hrs by broth microdilution method; format: functional, organism-based
Wickerhamomyces anomalus [12] = assay: Antifungal activity against Pichia anomala DSM 6766 at 66 ug/ml incubated for 48 hrs by broth microdilution method; format: functional, organism-based
Escherichia coli [13] = assay: Antibacterial activity against Escherichia coli DSM 1116 incubated for 24 hrs by broth microdilution method; format: functional; details: DSM 1116, 24 h
Micrococcus luteus [14] = assay: Antibacterial activity against Micrococcus luteus DSM 1790 incubated for 24 hrs by broth microdilution method; format: functional; details: DSM 1790, 24 h
Bacillus subtilis [15] = assay: Antibacterial activity against Bacillus subtilis DSM 10 incubated for 24 hrs by broth microdilution method; format: functional; details: DSM 10, 24 h
[16] = tested on: Chromobacterium violaceum; assay: Antibacterial activity against Chromobacterium violaceum DSM 30191 incubated for 24 hrs by broth microdilution method; format: functional; details: DSM 30191, 24 h
Mucor hiemalis [17] = assay: Antifungal activity against Mucor hiemalis DSM 2656 incubated for 48 hrs by broth microdilution method; format: functional
[18] = tested on: Schizosaccharomyces pombe; assay: Antifungal activity against Schizosaccharomyces pombe DSM 70572 incubated for 48 hrs by broth microdilution method; format: functional
Rhodotorula glutinis [19] = assay: Antifungal activity against Rhodotorula glutinis DSM 10134 incubated for 48 hrs by broth microdilution method; format: functional
[20] = tested on: Mycolicibacterium smegmatis; assay: Antibacterial activity against Mycobacterium smegmatis ATCC 700084 incubated for 24 hrs by broth microdilution method; format: functional; details: ATCC 700084, 24 h
Wickerhamomyces anomalus [21] = assay: Antifungal activity against Pichia anomala DSM 6766 incubated for 48 hrs by broth microdilution method; format: functional
Candida albicans [22] = assay: Antifungal activity against Candida albicans DSM 1665 incubated for 48 hrs by broth microdilution method; format: functional
[23] = Homo sapiens, A549, 120 h, read-out: IC50
[24] = Homo sapiens, A-431, 120 h, read-out: IC50
[25] = Homo sapiens, MCF7, 120 h, read-out: IC50
[26] = Homo sapiens, PC-3, 120 h, read-out: IC50
[27] = Homo sapiens, KB 3-1, 120 h, read-out: IC50
[28] = Homo sapiens, SK-OV-3, 120 h, read-out: IC50
[29] = Mus musculus, L929, 120 h, read-out: IC50

Row | Compound | IC50 (KB 3-1; [27]) | IC50 (A549; a549) | Activity (Pseudomonas aeruginosa [2]) | Activity (Escherichia coli [3]) | LC50 (Caenorhabditis elegans) | IC50 (A-431; a-431) | Activity [4] | Activity [5] | Activity (Micrococcus luteus [6]) | IC50 (MCF7; mcf7) | IC50 (PC-3; pc-3) | MIC (Staphylococcus aureus) | Activity (Rhodotorula glutinis [7]) | Activity (Mucor hiemalis [8]) | Activity [9] | IC50 (SK-OV-3; sk-ov-3) | Activity (Bacillus subtilis [10]) | Activity (Candida albicans [11]) | IC50 (L929; l929) | Activity (Wickerhamomyces anomalus [12]) | further results
1 | GENTAMICIN | – | – | – | – | – | – | – | – | – | – | – | – | – | – | – | – | – | – | – | – | MIC (Pseudomonas aeruginosa [1]): 1 µg/mL
2 | C/C(=C\c1csc(C)n1)[C@@H]1C[C@@H]2O[C@]2(C)CCC[C@H](C)[C@H](O)[C@@H](C)C(=O)C(C)(C)[C@@H](O)CC(=O)O1 [PATUPILONE] | 0.089 nM | – | – | – | – | – | – | – | – | – | – | – | – | – | – | – | – | – | – | – | IC50 (A549; [23]): 0.069 nM; IC50 (A-431; [24]): 0.079 nM; IC50 (MCF7; [25]): 0.24 nM; IC50 (PC-3; [26]): 1.6 nM; IC50 (SK-OV-3; [28]): 0.28 nM; IC50 (L929; [29]): 1.4 nM
3 | O=C(O)/C=C/C=C1\[C@@H](O)C[C@H](O)C12Oc1cccc3cccc(c13)O2 | – | Not Active | inactive | inactive | 50 µg/mL (≈ 147 µM) | Not Active | inactive | inactive | inactive | Not Active | Not Active | 66.6 µg/mL (≈ 196 µM) | inactive | inactive | inactive | Not Active | inactive | inactive | Not Active | inactive | IC50 (KB 3-1; kb 3-1): Not Active
4 | CN(C)[C@@H]1C(=O)C(C(N)=O)=C(O)[C@@]2(O)C(=O)C3=C(O)c4c(O)cccc4[C@@](C)(O)[C@H]3[C@H](O)[C@@H]12.Cl | – | – | – | – | – | – | – | – | – | – | – | 2.1 µg/mL | – | – | – | – | – | – | – | – | MIC (Escherichia coli [13]): 33.3 µg/mL; MIC (Micrococcus luteus [14]): 4.2 µg/mL; MIC (Bacillus subtilis [15]): 2.4 µg/mL; MIC [16]: 4.1 µg/mL
5 | O=C(O)/C=C/C=C1\C(=O)C=CC12Oc1cccc3cccc(c13)O2 | 800 nM | – | inactive | inactive | 50 µg/mL (≈ 156 µM) | – | inactive | – | – | – | – | 4.2 µg/mL (≈ 13.1 µM) | – | – | inactive | – | – | inactive | – | inactive | IC50 (A549; [23]): 2200 nM; MIC (Mucor hiemalis [17]; DSM 2656, 48 h): 16.7 µg/mL (≈ 52.1 µM); IC50 (A-431; [24]): 200 nM; IC50 (MCF7; [25]): 400 nM; MIC ([18]; DSM 70572, 48 h): 33.3 µg/mL (≈ 104 µM); IC50 (PC-3; [26]): 900 nM; MIC (Micrococcus luteus [14]): 8.3 µg/mL (≈ 25.9 µM); MIC (Rhodotorula glutinis [19]; DSM 10134, 48 h): 33.3 µg/mL (≈ 104 µM); MIC (Bacillus subtilis [15]): 4.2 µg/mL (≈ 13.1 µM); IC50 (SK-OV-3; [28]): 600 nM; IC50 (L929; [29]): 600 nM
6 | NC[C@H]1O[C@H](O[C@H]2[C@H](O)[C@@H](O[C@H]3O[C@H](CO)[C@@H](O)[C@H](N)[C@H]3O)[C@H](N)C[C@@H]2N)[C@H](O)[C@@H](O)[C@@H]1O [KANAMYCIN] | – | – | – | – | – | – | – | – | – | – | – | – | – | – | – | – | – | – | – | – | MIC [20]: 4.1 µg/mL (≈ 8.46 µM)
7 | IVERMECTIN | – | – | – | – | – | – | – | – | – | – | – | – | – | – | – | – | – | – | – | – | LD50 (Caenorhabditis elegans): 1 µg/mL
8 | O=C(O)/C=C/C[C@H]1[C@@H](O)C=CC12Oc1cccc3cccc(c13)O2 | 40100 nM | Not Active | inactive | inactive | 25 µg/mL (≈ 77.1 µM) | Not Active | inactive | inactive | inactive | Not Active | Not Active | 66.6 µg/mL (≈ 205 µM) | inactive | inactive | inactive | Not Active | inactive | inactive | Not Active | inactive | –
9 | NYSTATIN | – | – | – | – | – | – | – | – | – | – | – | – | – | – | – | – | – | – | – | – | MIC (Wickerhamomyces anomalus [21]): 8.3 µg/mL; MIC (Mucor hiemalis [17]): 4.2 µg/mL; MIC (Candida albicans [22]): 8.3 µg/mL; MIC [18]: 8.3 µg/mL; MIC (Rhodotorula glutinis [19]): 1 µg/mL
10 | O=C(O)/C=C/C=C1\[C@@H](O)C=CC12Oc1cccc3cccc(c13)O2 | – | Not Active | inactive | inactive | 50 µg/mL (≈ 155 µM) | Not Active | inactive | inactive | inactive | Not Active | Not Active | 66.6 µg/mL (≈ 207 µM) | inactive | inactive | inactive | Not Active | inactive | inactive | Not Active | inactive | IC50 (KB 3-1; kb 3-1): Not Active
